This is an account of results in PubChem BioAssay AID266 (DTP/NCI, 2004).

Values joined by “and” are separate entries in the source; they are usually repeats but may differ in a detail not shown here. Equal values may be shown once. Results filed as inconclusive are left out.

This assay relates to Nude mice, LX-1 lung xenograft intrarenal, tumor weight T/C. The assay is described as follows: NCI In Vivo Anticancer Drug Screen. Data for tumor model Human Lung LX-1 Xenograft (intrarenal inoculation) in NU/NU BALB/C (nude) mice. Conditions: endpoint: mean tumor weight change, higher = larger tumour. The procedure: The antitumor activity of compounds was measured in mice bearing transplantable tumors. Survival or tumor size were measured and the results are expressed as the measurement made in the treated group (T) divided by the measurement made in the vehicle treated control group (C). The tumor model used in this assay is Human Lung LX-1 Xenograft (intrarenal inoculation) in NU/NU BALB/C (nude) mice
(In general: A xenograft is tissue or cells of one species grown in another, often human tumour cells in immunodeficient mice.)

Where [1] appears, read: dose: 100.0 mg/kg/injection, schedule: Q01DX010 (sc), vehicle: saline.
Setting [2] is: dose: 200.0 mg/kg/injection, schedule: Q01DX010 (sc), vehicle: saline.
Where [3] appears, read: dose: 400.0 mg/kg/injection, schedule: Q01DX010 (sc), vehicle: saline.
[4] abbreviates: dose: 300.0 mg/kg/injection, schedule: Q04DX003 (sc), vehicle: saline with Tween-80.
[5] abbreviates: dose: 600.0 mg/kg/injection, schedule: Q04DX003 (sc), vehicle: saline with Tween-80.
Setting [6] is: dose: 1200.0 mg/kg/injection, schedule: Q04DX003 (sc), vehicle: saline with Tween-80.
The mark [7] stands for this setting: dose: 2400.0 mg/kg/injection, schedule: Q04DX003 (sc), vehicle: saline with Tween-80.
The mark [8] stands for this setting: dose: 200.0 mg/kg/injection, schedule: Q04DX003 (sc), vehicle: saline with Tween-80.
Setting [9] is: dose: 50.0 mg/kg/injection, schedule: Q01DX010 (sc), vehicle: saline.

Turning to `Cc1cc2nc3[nH]c4ccccc4c3nc2cc1C`, the T/C was 88 % of control under setting [1]; 190 % of control under setting [2]; 92 % of control under setting [3]; 97 % of control (dose: 800.0 mg/kg/injection, schedule: Q01DX010 (sc), vehicle: saline).
Consider `O=C(c1cccnc1)c1cc(-c2ccccn2)c(=O)n2ccccc12`, for which the T/C under setting [4] was 95 % of control, the T/C under setting [5] was 74 % of control, the T/C under setting [6] is 92 % of control and the T/C under setting [7] is 74 % of control.
Turning to `COC1=C(OC)C(=O)C(SC/C=C(\C)CCCC(C)CCCC(C)CCCC(C)C)=CC1=O` (stereo not drawn), the T/C runs as follows: (dose: 300.0 mg/kg/injection, schedule: Q04DX003 (ip), vehicle: saline with Tween-80) 82 % of control; (dose: 600.0 mg/kg/injection, schedule: Q04DX003 (ip), vehicle: saline with Tween-80) 110 % of control; (dose: 1200.0 mg/kg/injection, schedule: Q04DX003 (ip), vehicle: saline with Tween-80) 72 % of control.
As for `Cc1ccc(S(=O)(=O)NC(=O)OC23COCN2COC3)cc1`, the T/C is, setting by setting: under setting [8], 118 % of control; (dose: 400.0 mg/kg/injection, schedule: Q04DX003 (sc), vehicle: saline with Tween-80) 121 % of control; (dose: 800.0 mg/kg/injection, schedule: Q04DX003 (sc), vehicle: saline with Tween-80) 153 % of control; (dose: 1600.0 mg/kg/injection, schedule: Q04DX003 (sc), vehicle: saline with Tween-80) 112 % of control.
In the case of `C[Si](C)(C)O/C=C1\CCCCC1=O`, the T/C by setting is: (dose: 100.0 mg/kg/injection, schedule: Q04DX003 (sc), vehicle: saline with Tween-80) 95 % of control; under setting [8], 92 % of control.
Consider `CN(C)P(=O)(Oc1ccccc1)N(C)C`, for which the T/C runs as follows: (dose: 150.0 mg/kg/injection, schedule: Q04DX003 (sc), vehicle: saline with Tween-80) 99 % of control; under setting [4], 111 % of control; under setting [5], 72 % of control; under setting [6], 83 % of control.
With `CNNCc1ccc(C(=O)NC(C)C)cc1`, the T/C is -66 % of control (dose: 50.0 mg/kg/injection, schedule: Q01DX010 (ip), vehicle: saline); 2 % of control and 11 % of control under setting [9]; -100 % of control (dose: 100.0 mg/kg/injection, schedule: Q01DX010 (ip), vehicle: saline); 8 % of control under setting [1]; 5 % of control (dose: 166.66 mg/kg/injection, schedule: Q04DX003 (sc), vehicle: saline); -71 % of control under setting [2]. The T/C runs as follows: (dose: 333.33 mg/kg/injection, schedule: Q04DX003 (sc), vehicle: saline) -38 % of control; under setting [3], -65 % of control; (dose: 666.65 mg/kg/injection, schedule: Q04DX003 (sc), vehicle: saline) -14 % of control.
Turning to `C/C(=C\c1ccccc1)[N+](=O)[O-]`, the T/C reads like this: (dose: 50.0 mg/kg/injection, schedule: Q01DX010 (sc), vehicle: Klucel (hydroxypropylcellulose) (HPC)) 96 % of control; (dose: 100.0 mg/kg/injection, schedule: Q01DX010 (sc), vehicle: Klucel (hydroxypropylcellulose) (HPC)) 97 % of control; (dose: 200.0 mg/kg/injection, schedule: Q01DX010 (sc), vehicle: Klucel (hydroxypropylcellulose) (HPC)) 15 % of control.
Consider `N=c1c(C(=O)OCc2ccccc2)ncc(CCl)n1O`, for which the T/C under setting [4] is 87 % of control, the T/C under setting [5] was 83 % of control, the T/C under setting [6] is 91 % of control and the T/C under setting [7] was 81 % of control.
In the case of `COc1cccc2c1C(=O)c1c(O)c3c(c(O)c1C2=O)CC(O)(/C(C)=N/NC(=O)CCC(=O)N/N=C(\C)C1(O)Cc2c(O)c4c(c(O)c2C(OC2CC(N)C(O)C(C)O2)C1)C(=O)c1c(OC)cccc1C4=O)CC3OC1CC(N)C(O)C(C)O1` (stereo not drawn), the T/C reads like this: (dose: 6.25 mg/kg/injection, schedule: Q01DX010 (sc), vehicle: water) 65 % of control; (dose: 12.5 mg/kg/injection, schedule: Q01DX010 (sc), vehicle: water) 23 % of control.
Take `CN(C)N=Nc1ccc(C(N)=O)cc1`: under “dose: 200.0 mg/kg/injection, schedule: Q04DX003 (ip), vehicle: saline with Tween-80”, the T/C is -20 % of control and -13 % of control.
On to `CN1C(=O)C(=Cc2ccc(O)cc2)C(=O)N(C)C1=O`, for which the T/C is 114 % of control under setting [4], 110 % of control under setting [5], 87 % of control under setting [6] and 68 % of control under setting [7].
As to `CCN(CC)CCNc1ccc(C)c2sc3ccccc3c(=O)c12`, the T/C under setting [9] was 211 % of control.
Take `CN=NN(C)C(=O)NC`: the T/C runs as follows: (dose: 6.25 mg/kg/injection, schedule: Q04DX003 (ip), vehicle: saline) 71 % of control and 82 % of control; (dose: 12.5 mg/kg/injection, schedule: Q04DX003 (ip), vehicle: saline) 28 % of control and 45 % of control; (dose: 25.0 mg/kg/injection, schedule: Q04DX003 (ip), vehicle: saline) 6 % of control; (dose: 50.0 mg/kg/injection, schedule: Q04DX003 (ip), vehicle: saline) -34 % of control and -18 % of control; (dose: 108.0 mg/kg/injection, schedule: Q04DX003 (ip), vehicle: saline) 5 % of control; (dose: 180.0 mg/kg/injection, schedule: Q04DX003 (ip), vehicle: saline) 4 % of control.
Regarding `Cc1cc(NCCCCCCCNc2cc(C)nc3cc(N)ccc23)c2ccc(N)cc2n1`, the T/C runs as follows: (dose: 12.5 mg/kg/injection, schedule: Q01DX010 (sc), vehicle: saline with Tween-80) 48 % of control; (dose: 25.0 mg/kg/injection, schedule: Q01DX010 (sc), vehicle: saline with Tween-80) 11 % of control.
Take `CO[C@H](/C(C)=C/C=C/C(C)=C/c1coc(C)n1)[C@H](C)[C@H]1C[C@@H](O)[C@@]2(C)O[C@H]2/C=C/[C@@H](C)[C@@H]2C[C@@H](CC(=O)O2)C[C@H]2O[C@@H]2C(=O)O1`: the T/C was 105 % of control (dose: 0.13 mg/kg/injection, schedule: Q04DX003 (sc), vehicle: Klucel (hydroxypropylcellulose) (HPC)) and 95 % of control (dose: 0.25 mg/kg/injection, schedule: Q04DX003 (sc), vehicle: Klucel (hydroxypropylcellulose) (HPC)).
As to `c1ccc2c(NCCCCCCCCNc3c4ccccc4nc4ccccc34)c3ccccc3nc2c1`, the T/C reads like this: (dose: 5.0 mg/kg/injection, schedule: Q01DX010 (sc), vehicle: Klucel (hydroxypropylcellulose) (HPC)) 60 % of control; (dose: 10.0 mg/kg/injection, schedule: Q01DX010 (sc), vehicle: Klucel (hydroxypropylcellulose) (HPC)) 76 % of control; (dose: 20.0 mg/kg/injection, schedule: Q01DX010 (sc), vehicle: Klucel (hydroxypropylcellulose) (HPC)) 23 % of control; (dose: 40.0 mg/kg/injection, schedule: Q01DX010 (sc), vehicle: Klucel (hydroxypropylcellulose) (HPC)) 36 % of control.
For the molecule `COC(=O)Nc1cn2cc(C(=O)c3cccs3)ccc2n1`, the T/C runs as follows: (dose: 300.0 mg/kg/injection, schedule: Q04DX003 (sc), vehicle: Klucel (hydroxypropylcellulose) (HPC)) 94 % of control; (dose: 600.0 mg/kg/injection, schedule: Q04DX003 (sc), vehicle: Klucel (hydroxypropylcellulose) (HPC)) 96 % of control; (dose: 1200.0 mg/kg/injection, schedule: Q04DX003 (sc), vehicle: Klucel (hydroxypropylcellulose) (HPC)) 54 % of control; (dose: 2400.0 mg/kg/injection, schedule: Q04DX003 (sc), vehicle: Klucel (hydroxypropylcellulose) (HPC)) 99 % of control.
For `c1cc(OCC2CO2)ccc1OCC1CO1` (stereo not drawn), the T/C by setting is: under setting [4], 172 % of control; under setting [5], 118 % of control; under setting [6], 114 % of control; under setting [7], 88 % of control.
For `CC[C@]1(O)C[C@H]2CN(CCc3c([nH]c4ccccc34)[C@@](C(=O)OC)(c3cc4c(cc3OC)N(C=O)[C@H]3[C@@](O)(C(=O)OC)[C@H](OC(C)=O)[C@]5(CC)C=CCN6CC[C@]43[C@@H]65)C2)C1`, the T/C is, setting by setting: (dose: 0.13 mg/kg/injection, schedule: Q01DX010 (sc), vehicle: saline) 69 % of control; (dose: 0.25 mg/kg/injection, schedule: Q01DX010 (sc), vehicle: saline) 20 % of control; (dose: 0.5 mg/kg/injection, schedule: Q01DX010 (sc), vehicle: saline) 1 % of control.
`Cc1c(CNc2ccc(C(=O)NC(CC(=O)O)C(=O)O)cc2)ccc2nc(N)nc(N)c12` (stereo not drawn): the T/C (dose: 12.5 mg/kg/injection, schedule: Q04DX003 (sc), vehicle: saline with Tween-80) is 100 % of control; the T/C (dose: 25.0 mg/kg/injection, schedule: Q04DX003 (sc), vehicle: saline with Tween-80) is 71 % of control; the T/C (dose: 50.0 mg/kg/injection, schedule: Q04DX003 (sc), vehicle: saline with Tween-80) was 32 % of control.
